The nature of this data set: GHS categories as the set defines them, by LD50: 1 up to 5, 2 up to 50, 3 up to 300, 4 up to 2000, 5 above 2000 mg/kg. The note with it: rat; in vivo; po. The source says: […]The data set underlying the modeling effort for this project was initially compiled by NICEATM and U.S. EPA’s CCTE. Briefly, LD50 data were collected from rat acute oral systemic toxicity tests, including limit tests, ranges/confidence intervals, and discrete LD50 values. The full data set included 21,200 LD50 entries for 15,688 substances. […] Data were reviewed to ensure that LD50 values with obvious errors in the extracted data such as unit conversion errors (e.g., comma and decimal separator misplacements) were either fixed or removed. After this review, 16,209 LD50 values remained. Many of the chemicals represented had multiple LD50 entries, requiring that a single representative value per Chemical Abstracts Service Registry Number (CASRN) identifier be defined to facilitate modeling efforts. Based on ATWG feedback and to define the representative LD50 as a protective value while accounting for the distribution across multiple LD50s, the median of the lowest quartile was computed using only discrete LD50 values (omitting limit test data and range and confidence interval data). A detailed summary of the data compilation is available online on the NICEATM webpage dedicated to the collaborative modeling project (NTP 2020).
[…][…] For categorical designations, limit test and range/confidence interval LD50 data were integrated wherever possible. As such, the number of chemicals with end point values/calls varies across the modeling end points (Table 3) based on whether chemicals had representative LD50 values and/or other data. If a chemical had both, the representative value was used to determine categorical calls rather than limit test data. Some data were useable only for certain end points and categories depending on the thresholds. For example, ranges that spanned multiple hazard categories were considered only for the binary (very toxic/nontoxic) end points and omitted from rendering a determination for hazard category assignment.
[…]The final data set comprising 11,992 chemicals was split into training and evaluation sets […], respectively. This process was performed semirandomly by ordering chemicals based on the five end points (categorical and continuous LD50 values) and partitioning every fourth record into the evaluation set accordingly. This approach was taken to ensure an equivalent distribution of the LD50 values and the different hazard categories between the training and the evaluation sets without supervised sampling of the chemicals based on structures (Figure 1A). The sources of the chemical structures were also kept equivalent between the two sets, with chemical structures obtained from DSSTox, being the highest quality, representing over 75% of each set (Figure 1B).

`CCC(C(=O)Oc1ccccc1OC)c1ccc(-c2ccccc2)cc1` (stereo not drawn) returned a GHS category of 5.

With `CC(C)CC(C)(C)C`, the GHS category worked out at 5.

`CCC(=O)OC/C=C(\C)CCC=C(C)C` displayed a GHS category of 5.

The molecule `O=C(Nc1ccc(F)cc1F)c1cccnc1Oc1cccc(C(F)(F)F)c1` yielded a GHS category of 5.

The molecule `O=C1CCCCCCCCCCCCCCO1` gave a GHS category of 5.

In turn, `COc1ccc(-c2ccc(C#N)cc2)cc1` yielded a GHS category of 5.

For the molecule `CCC1=NN(C(=O)NC(=O)c2ccc(Cl)cc2)C(C)(CC)C1` (stereo not drawn), the GHS category is on record as 5.

`CCCc1c(Cc2ccc(-c3ccccc3-c3nn[nH]n3)cc2)c(N2CCCC2)nc2ncnn12` gave a GHS category of 4.

`C/C=C/C=C/CCCCCCCO` showed a GHS category of 5.

In turn, `CCN(Cc1cccc(S(=O)(=O)O)c1)c1ccc(C(=C2C=CC(=[N+](CC)Cc3cccc(S(=O)(=O)[O-])c3)C=C2)c2ccccc2)cc1` displayed a GHS category of 5.

Regarding `C[C@]12C=CC(=O)C=C1CC[C@@H]1[C@@H]2CC[C@@]2(C)[C@H]1CC[C@]2(C)O`, the GHS category turned out to be 4.

With `CCCc1c(Cc2ccc(-c3ncccc3-c3nn[nH]n3)cc2)c(=O)nc2nc[nH]n12`, the GHS category was 4.

As for `CC1(C)Oc2cc(C(=O)c3ccccc3)ccc2NC1=O`, the GHS category was determined as 5.

`COC(=O)C(CCn1cnc2c(Cl)nc(N)nc21)C(=O)OC` returned a GHS category of 5.

Molecule `CS(=O)(=O)c1ccc(C(=O)C2C(=O)CCCC2=O)c([N+](=O)[O-])c1` displayed a GHS category of 5.

`CC(C=O)C(=O)c1ccc(C2CCCCC2)cc1` (stereo not drawn) came in with a GHS category of 4.

`C[Si]1(C)O[Si](C)(c2ccccc2)O[Si](C)(C)O[Si](C)(c2ccccc2)O1` (stereo not drawn) had a GHS category of 5.

With `CCOP(OCC)c1ccccc1`, the GHS category was 5.

Molecule `CCCCCCCCCCOC1OC(CO)C(O)C(O)C1O` (stereo not drawn) came in with a GHS category of 5.

As to `CS(=O)(=O)c1ccc(F)c(C(=O)O)c1`, the GHS category stood at 5.

For `CCc1cc(C)cc(CC)c1-c1c(OC(=O)C(C)(C)C)n2n(c1=O)CCOCC2`, the GHS category turned out to be 5.

Consider `CO/N=C(/C(=O)N[C@@H]1C(=O)N2C(C(=O)O)=C(COC(C)=O)CS[C@H]12)c1csc(N)n1`, for which the GHS category came out at 5.

For the molecule `CC(C)Br`, the GHS category is given as 5.

`CCCC1CCCC(=O)O1` (stereo not drawn) showed a GHS category of 5.

Molecule `O=[N+]([O-])c1cccc(C=NOCc2cccc([N+](=O)[O-])c2)c1` showed a GHS category of 4.

As for `CC(C)(C)c1cc(Cc2cc(C(C)(C)C)c(O)c(C(C)(C)C)c2)cc(C(C)(C)C)c1O`, the GHS category amounted to 5.

As for `Cc1ccn2nc(S(=O)(=O)Nc3c(F)cccc3F)nc2n1`, the GHS category stood at 5.

`CCCC(=O)OCCC(C)CCCC(C)C` (stereo not drawn): the GHS category is 5.

The molecule `CC(=O)Nc1ccc(S(=O)(=O)Cl)cc1` yielded a GHS category of 5.

Take `CCCCCCOCC(OC)OC`: the GHS category is recorded as 5.

Turning to `CCCCCCCCCCCCCC`, the GHS category is 5.

For `COc1cccc(OC)c1C(=O)NC(=O)Nc1c(F)cccc1F`, the GHS category was 4.

In turn, `CCCCCCCC[N+](C)(C)[O-]` showed a GHS category of 5.

`CC(C)OC(=O)C(C)N(C(=O)c1ccccc1)c1ccc(F)c(Cl)c1` (stereo not drawn) came in with a GHS category of 5.

As to `C=CCCCCCCCCC(C)CCCCCCCC` (stereo not drawn), the GHS category is on record as 5.

In turn, `COc1ccccc1C=CC=O` had a GHS category of 5.

The molecule `Cc1cccc2ncc(C(=O)NC3CCCC3)c(=O)n12` returned a GHS category of 3.

`CCC(=O)OC1C=CC2C3CCC(C3)C12` (stereo not drawn) had a GHS category of 5.

Molecule `Cc1cc(OC(=O)c2cc(Cl)ccc2OC(N)=O)ccc1Cl` returned a GHS category of 5.

Turning to `CCCCCC1C(=O)CCC1CC(C)=O` (stereo not drawn), the GHS category was found to be 5.

The molecule `CCCCCCCC(O)CCO` (stereo not drawn) registered a GHS category of 5.

As for `Clc1ccc(CNC2=NCCS2)cc1`, the GHS category amounted to 3.

For `CC(C)(N=C(O)C(Br)C(C)(C)C)c1ccccc1` (stereo not drawn), the GHS category was found to be 5.

Turning to `O=C(CCl)OC(=O)CCl`, the GHS category was 3.

As to `COC(=O)CCCC(=O)OC`, the GHS category amounted to 5.

On to `CCCCCCCCCCCCCCCCCCOC(=O)CCSCCC(=O)OCCCCCCCCCCCCCCCCCC`, for which the GHS category stood at 5.

Regarding `COc1ccc(Cl)cc1N/C(=N/C1CCCCC1)c1ccccc1C`, the GHS category is reported as 4.

`CC(C)(C)[C@H]1CC[C@H](O)CC1` showed a GHS category of 5.

`CNc1cnn(-c2cccc(C(F)(F)F)c2)c(=O)c1Cl` gave a GHS category of 5.

Molecule `CCCCCCCCCCCCC` registered a GHS category of 5.

`O=C(O)CN(CCCN(C(=O)O)C(=O)O)C(=O)O` returned a GHS category of 5.

Molecule `Cc1ccc(S(=O)(=O)NC(=O)Nc2cccc(OS(=O)(=O)c3ccc(C)cc3)c2)cc1` showed a GHS category of 5.

`CCSC(=O)/C=C(C)/C=C/CC(C)CCCC(C)(C)OC` (stereo not drawn) displayed a GHS category of 5.

`COc1cc(OC)nc(NC(=O)NS(=O)(=O)c2ncccc2C(=O)N(C)C)n1` gave a GHS category of 5.

Take `CCCCCCCCCC(C)C=O` (stereo not drawn): the GHS category is recorded as 5.

The molecule `Cc1nc(NS(=O)(=O)c2ccc(N)cc2)oc1C` came in with a GHS category of 5.

As to `CCCCCCCCCCCCCCCC(=O)OC1=C(C(=O)Nc2ccccn2)N(C)S(=O)(=O)c2ccsc21`, the GHS category is 2.

`CCCN(CC)CC1COC2(CCC(C(C)(C)C)CC2)O1` (stereo not drawn) gave a GHS category of 4.

For the molecule `Cc1cccc(Nc2ccncc2S(=O)(=O)NC(=O)NC(C)C)c1`, the GHS category was 5.

`O=C1CCCCCN1C(=O)Nc1ccc(Cc2ccc(NC(=O)N3CCCCCC3=O)cc2)cc1`: the GHS category is listed as 5.

`CCN(CC)c1ccc(C=NN(c2ccccc2)c2ccccc2)cc1` returned a GHS category of 5.

`CC(CC(C)(C)C)CC(C)(C)C` gave a GHS category of 5.

`Cc1nc(Cl)cc(Nc2ncc(C(=O)Nc3c(C)cccc3Cl)s2)n1` gave a GHS category of 5.

Turning to `Cc1ccccc1OP(Oc1ccccc1C)Oc1ccccc1C`, the GHS category is recorded as 4.

With `C=C1c2cccc(O)c2C(=O)C2=C(O)[C@]3(O)C(=O)C(C(N)=O)=C(O)[C@@H](N(C)C)[C@@H]3[C@@H](O)[C@H]12`, the GHS category is 5.

For the molecule `N#Cc1cccc(C2=C3C(=O)NC(c4cccc(C#N)c4)=C3C(=O)N2)c1`, the GHS category amounted to 5.

Molecule `O=C(O)CCCCC(=O)O` had a GHS category of 5.

Regarding `CC1(c2ccc(Oc3ccccc3)cc2)OC(=O)N(Nc2ccccc2)C1=O` (stereo not drawn), the GHS category worked out at 5.

As to `CCCS(=O)(=O)Nc1ccc(F)c(C(=O)c2c[nH]c3ncc(Br)cc23)c1F`, the GHS category is reported as 5.

`CC(C)Oc1ccc2c(c1)N(CCC1CCCCN1C)c1ccccc1S2` (stereo not drawn) came in with a GHS category of 5.

`COC(=O)c1ccc(C(=O)OC)c([N+](=O)[O-])c1` had a GHS category of 5.

Molecule `COC(OC)N(C)C` displayed a GHS category of 5.

With `CC(C)(C)CNc1nnc(-c2ccccc2)c2ccccc12`, the GHS category was 5.

In turn, `COc1cc2c(cc1OC)[C@@H]1C[C@H](C[C@H]3CCCCN31)OC(=O)C=Cc1ccc(O)c-2c1` showed a GHS category of 4.

`CC(=O)OCC(=O)[C@@]12OC3(CCCC3)O[C@@H]1C[C@H]1[C@@H]3CCC4=CC(=O)C=C[C@]4(C)[C@@]3(F)[C@@H](O)C[C@@]12C` registered a GHS category of 5.

`CC(CC(C)(C)C)CC(C)(C)CC(C)(C)C` (stereo not drawn) returned a GHS category of 5.

Molecule `O=c1c2cc(Cl)ccc2[nH]c2cc3c(=O)c4cc(Cl)ccc4[nH]c3cc12` came in with a GHS category of 5.

In turn, `CC(C)CCCCCCCOC(=O)CCCCCCCC(=O)OCCCCCCCC(C)C` returned a GHS category of 5.

As for `CCCC(CCC)C(=O)Oc1cc(C)ccc1C(C)C`, the GHS category is recorded as 5.

Turning to `CCCCCCCCCCCCCCCC(=O)O[C@@H]1C[C@@H](C(=O)O)N(C(=O)CCCCCCCCCCCCCCC)C1`, the GHS category worked out at 5.

`CCCCCCCCCCCCCOC(=O)c1ccccc1C(=O)OCCCCCCCCCCCCC` came in with a GHS category of 5.

Consider `COc1ccc2c(c1)c(CC(=O)NC1CCCC1)c(C)n2C(=O)c1ccc(Cl)cc1`, for which the GHS category was determined as 5.

The molecule `Cc1c(OCC(F)(F)F)ccnc1CS(=O)c1nc2ccccc2[nH]1` (stereo not drawn) showed a GHS category of 5.

As to `CC(=O)OCC(=O)[C@@]1(O)CC[C@H]2[C@@H]3CCC4=CC(=O)CC[C@]4(C)[C@@]3(F)[C@@H](O)C[C@@]21C`, the GHS category is 4.

The molecule `Nc1ncc(Br)cc1O` returned a GHS category of 5.

`CN1C(=O)COc2cc(C(=O)c3ccccc3)ccc21` gave a GHS category of 5.

Take `COC(=O)c1ccccc1S(=O)(=O)NC(=O)N(C)c1nc(C)nc(OC)n1`: the GHS category worked out at 5.

`O=S(=O)(CCO)CS(=O)(=O)CCO`: the GHS category worked out at 5.

For the origin of these results see the CATMoS acute toxicity set (Mansouri et al. 2021).
